# What was measured:
# phospho-AKT (Ser129) = assay: Western blot analyses of pAKT and AKT in MDA-MB-231 cells; type: cell-based; settings: 24 h exposure
# MDA-MB-231 cells [1] = assay: MDA-MB-231 cell viability assay; type: cell-based; settings: 48 h, up to 10 μM
# MDA-MB-231 cells [2] = settings: 2–10 μM, 24–72 h, WST-1; cited from earlier work
# [3] = test system: 13 multiple myeloma cell lines; settings: cited from earlier work
# PAMPA = type: in vitro ADME; settings: correlation
# DYRKs and HIPKs = assay: Enzymatic profiling, 8-member DYRK and HIPK panel; type: biochemical; settings: 1 μM
# Kinetic solubility = settings: for measured solubility relative to the dose concentration: actual solubility estimated to be higher than Table 1; for solubility kinetic at 24 h: pH 7.4, kinetic solubility, PBS pH 7.4, 24-hour incubation
# PIP5K1C = PIP5K1C (Homo sapiens, UniProt O60331); assay: Enzymatic assay, dose-response; type: biochemical
# Sequence of PIP5K1C (O60331 whole entry): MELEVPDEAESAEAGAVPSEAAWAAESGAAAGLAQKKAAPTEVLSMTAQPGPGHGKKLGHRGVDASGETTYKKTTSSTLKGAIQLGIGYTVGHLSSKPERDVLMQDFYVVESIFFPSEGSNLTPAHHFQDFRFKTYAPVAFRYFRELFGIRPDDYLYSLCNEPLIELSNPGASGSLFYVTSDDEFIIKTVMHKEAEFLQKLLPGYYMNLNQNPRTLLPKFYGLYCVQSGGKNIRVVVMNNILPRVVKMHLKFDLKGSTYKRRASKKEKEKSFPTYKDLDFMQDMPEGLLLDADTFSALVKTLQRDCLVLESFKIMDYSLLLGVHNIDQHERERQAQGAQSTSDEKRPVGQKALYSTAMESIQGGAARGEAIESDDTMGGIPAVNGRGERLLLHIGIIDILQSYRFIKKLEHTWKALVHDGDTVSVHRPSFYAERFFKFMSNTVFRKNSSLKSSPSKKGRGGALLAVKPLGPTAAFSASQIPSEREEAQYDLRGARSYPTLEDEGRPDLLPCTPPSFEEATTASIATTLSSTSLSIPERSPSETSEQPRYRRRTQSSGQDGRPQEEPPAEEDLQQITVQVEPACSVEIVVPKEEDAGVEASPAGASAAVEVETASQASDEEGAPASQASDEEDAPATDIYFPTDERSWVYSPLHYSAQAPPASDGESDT
# CK2α and CK2α′ = assay: CK2 NanoBRET assays
measured solubility relative to the dose concentration (Kinetic solubility),solubility kinetic at 24 h (Kinetic solubility) [µM],Compound,activity in DYRK and HIPK enzymatic panel (DYRKs and HIPKs),other results
,,"O=C(O)c1ccc2c(c1)nc(Nc1cccc(Cl)c1)c1ccncc12 [CX-4945, 5-(3-chlorophenylamino)benzo[c][2,6]naphthyridine-8-carboxylic acid, reference compound]",,AKT phosphorylation (phospho-AKT (Ser129)): dose-dependent inhibition of AKT phosphorylation; total AKT expression (phospho-AKT (Ser129)): no impact on total AKT expression; cytotoxicity (MDA-MB-231 cells [1]): did not exhibit cytotoxicity; cell growth (MDA-MB-231 cells [2]): cell growth is inhibited; antiproliferative activity [3]: low micromolar antiproliferative activity
,,"N#Cc1cccc(Nc2nc3cc(C(=O)O)ccc3c3cncnc23)c1 [CX-5011, reference compound]",,cytotoxicity (MDA-MB-231 cells [1]): did not exhibit cytotoxicity
greater than 75%,> 100,O=C(O)c1ccc2c(c1)nc(NCc1ccccc1)c1ncncc12 [Compound 2],lacked activity against DYRKs and HIPKs,human fraction absorbed (%FA) correlated with PAMPA Pe (PAMPA): greater than 80%; AKT phosphorylation (phospho-AKT (Ser129)): dose-dependent inhibition of AKT phosphorylation; total AKT expression (phospho-AKT (Ser129)): no impact on total AKT expression; cytotoxicity (MDA-MB-231 cells [1]): neither compound 2 nor SGC-CK2-1 exhibited significant cytotoxicity
,,O=C(O)c1ccc2c(c1)nc(NCc1ccccc1)c1ncccc12 [Compound 7],,"human fraction absorbed (%FA) correlated with PAMPA Pe (PAMPA): greater than 80%; PIP5K1C inhibition, enzymatic follow-up (PIP5K1C): did not result in PIP5K1C inhibition; cytotoxicity (MDA-MB-231 cells [1]): did not exhibit cytotoxicity; binding in CK2α and CK2α′ NanoBRET assays (CK2α and CK2α′): not bind either kinase at concentrations up to 10 μM"
greater than 75%,> 100,COc1cccc(CCNc2nc3cc(C(=O)O)ccc3c3cncnc23)c1 [Compound 8],lacked activity against DYRKs and HIPKs,
,> 100,O=C(O)c1ccc2c(c1)nc(NCCc1cccc(Cl)c1)c1ncncc12 [Compound 9],lacked activity against DYRKs and HIPKs,
,> 100,O=C(O)c1ccc2c(c1)nc(NCCc1cccc(F)c1)c1ncncc12 [Compound 10],potent inhibition of just one kinase,
,,O=C(O)c1ccc2c(c1)nc(Nc1ccc3ccccc3c1)c1ncncc12 [Compound 11],,observation during solubility assessment (Kinetic solubility): insoluble residue
greater than 75%,,O=C(O)c1ccc2c(c1)nc(Nc1ccc(Cl)cc1)c1ncncc12 [Compound 12],,
greater than 75%,,O=C(O)c1ccc2c(c1)nc(Nc1cccc(F)c1)c1ncncc12 [Compound 13],,
,,O=C(O)c1ccc2c(c1)nc(Nc1ccccc1Cl)c1ncncc12 [Compound 15],,observation during solubility assessment (Kinetic solubility): insoluble residue
greater than 75%,,O=C(O)c1ccc2c(c1)nc(Nc1ccccc1)c1ncncc12 [Compound 16],,
,> 100,O=C(O)c1ccc2c(c1)nc(NCCc1ccccc1)c1ncncc12 [Compound 17],potent inhibition of just one kinase,
greater than 75%,> 100,O=C(O)c1ccc2c(c1)nc(NCCc1cccc(Cl)c1)c1ccncc12 [Compound 18],potent inhibition of just one kinase,
greater than 75%,> 100,O=C(O)c1ccc2c(c1)nc(NCc1ccccc1)c1ccncc12 [Compound 21],lacked activity against DYRKs and HIPKs,
greater than 75%,> 100,O=C(O)c1ccc2c(c1)nc(NCCc1cccc(F)c1)c1ccncc12 [Compound 22],,
greater than 75%,,O=C(O)c1ccc2c(c1)nc(Nc1cccc(F)c1)c1ccncc12 [Compound 23],,
greater than 75%,> 100,COc1cccc(CCNc2nc3cc(C(=O)O)ccc3c3cnccc23)c1 [Compound 24],potent inhibition of just one kinase,
greater than 75%,,O=C(O)c1ccc2c(c1)nc(Nc1ccccc1)c1ccncc12 [Compound 25],,
greater than 75%,> 100,"O=C(O)c1ccc2c(c1)nc(NCCc1ccccc1)c1ccncc12 [Compound 27, 5-(phenethylamino)benzo[c][2,6]naphthyridine-8-carboxylic acid]",,
greater than 75%,,"COc1cccc(Nc2nc3cc(C(=O)O)ccc3c3cnccc23)c1 [Compound 28, 5-((3-methoxyphenyl)amino)benzo[c][2,6]naphthyridine-8-carboxylic acid]",,
